Reference: the NIST ThermoML archive (doi:10.1021/je060271a)

Settings: 283.15 K, Liquid, Vibrating tube method

CCCCCCCC(=O)OCC(COC(=O)CCCCCCC)(COC(=O)CCCCCCC)COC(=O)CCCCCCC [pentaerythritol tetraoctanoate]
Settings	mass density [kg/m3]
7440.8 kPa	974.4
7459 kPa	974.5
7477.1 kPa	974.5
7498.5 kPa	974.5
7516.3 kPa	974.6
7534.1 kPa	974.5
7555.6 kPa	974.6
7574.3 kPa	974.6
7592.6 kPa	974.6
7614.9 kPa	974.6
7633.7 kPa	974.6
7652.5 kPa	974.6
7671.5 kPa	974.7
7693.9 kPa	974.6
7713.6 kPa	974.7
7732.4 kPa	974.7
7751.9 kPa	974.7
7774.9 kPa	974.8
7794.2 kPa	974.7
7813.7 kPa	974.8
7837.5 kPa	974.7
7857 kPa	974.8
7877.2 kPa	974.8
7897.6 kPa	974.8
7917.4 kPa	974.8
7942.4 kPa	974.8
7963.7 kPa	974.8
7984.1 kPa	974.8
8005.2 kPa	974.9
8025.4 kPa	974.9
8049.7 kPa	974.8
8070.2 kPa	974.9
8092.5 kPa	975.1
8117.1 kPa	974.9
8138 kPa	974.8
8159.8 kPa	974.9
8184.3 kPa	974.9
8205.1 kPa	975
8227.9 kPa	974.9
8252.3 kPa	975
8274.2 kPa	975
8300.2 kPa	975.1
8322.1 kPa	975.1
8344.2 kPa	975.1
8367 kPa	975.1
8393.5 kPa	975
8415.8 kPa	975.1
8438.6 kPa	975
8465.5 kPa	975.1
8487.9 kPa	975.1
8516.4 kPa	975.2
8539.8 kPa	975.1
8563.6 kPa	975.1
8586.9 kPa	975.2
8615 kPa	975.2
8638.6 kPa	975.2
8666.6 kPa	975.3
8690.7 kPa	975.3
8714.3 kPa	975.1
8744.3 kPa	975.2
8768.6 kPa	975.3
8793.6 kPa	975.4
8822.8 kPa	975.4
8847.1 kPa	975.3
8872.8 kPa	975.3
8898.8 kPa	975.4
8929.2 kPa	975.3
8953.6 kPa	975.4
8985 kPa	975.4
9011.4 kPa	975.4
9037.2 kPa	975.4
9063.1 kPa	975.5
9095 kPa	975.3
9120.9 kPa	975.4
9152 kPa	975.5
9179.6 kPa	975.5
9206.9 kPa	975.5
9238.7 kPa	975.5
9266.5 kPa	975.5
9295.1 kPa	975.6
9323 kPa	975.5
9356.5 kPa	975.6
9383.9 kPa	975.2
9416.6 kPa	975.6
9445.6 kPa	975.6
9474.8 kPa	975.6
9509.1 kPa	975.6
9537.9 kPa	975.7
9567.4 kPa	975.8
9602.7 kPa	975.7
9633 kPa	975.8
9662.7 kPa	975.7
9692.8 kPa	975.8
9730.2 kPa	975.8
9760.9 kPa	975.8
9797 kPa	975.9
9827.4 kPa	975.9
9859.1 kPa	975.8
9890.1 kPa	975.9
9927.8 kPa	975.9
9959.5 kPa	976
9991.2 kPa	976
10030 kPa	975.8
10063 kPa	975.9
10103 kPa	976
10135 kPa	975.9
10169 kPa	976
10203 kPa	976.1
10243 kPa	976.1
10276 kPa	976
10311 kPa	976.1
10352 kPa	976
10387 kPa	976.1
10421 kPa	976.1
10464 kPa	976.2
10500 kPa	976.2
10539 kPa	976.3
10575 kPa	976.4
10612 kPa	976.3
10655 kPa	976.1
10692 kPa	976.4
10736 kPa	976.3
10773 kPa	976.4
10813 kPa	976.3
10851 kPa	976.4
10890 kPa	976.5
10936 kPa	976.5
10974 kPa	976.5
11022 kPa	976.5
11063 kPa	976.4
11103 kPa	976.5
11143 kPa	976.6
11183 kPa	976.6
11232 kPa	976.8
11272 kPa	976.6
11322 kPa	976.6
11363 kPa	976.6
11404 kPa	976.6
11456 kPa	976.9
11499 kPa	976.7
11542 kPa	976.8
11594 kPa	976.8
11639 kPa	976.8
11683 kPa	976.8
11736 kPa	976.9
11780 kPa	976.8
11826 kPa	977
11881 kPa	976.9
11928 kPa	976.9
11974 kPa	977.1
12022 kPa	977
12078 kPa	977
12126 kPa	977.1
12174 kPa	977.1
12234 kPa	977.1
12283 kPa	977.2
12334 kPa	977.2
12394 kPa	977.1
12445 kPa	977.3
12496 kPa	977.2
12548 kPa	977.3
12611 kPa	977.3
12662 kPa	977.3
12708 kPa	977.5
12785 kPa	977.5
12834 kPa	977.5
12903 kPa	977.4
12955 kPa	977.6
12988 kPa	977.5
13021 kPa	977.6
13054 kPa	977.6
13095 kPa	977.6
13128 kPa	977.6
13170 kPa	977.5
13204 kPa	977.8
13238 kPa	977.7
13272 kPa	977.7
13314 kPa	977.8
13350 kPa	977.7
13385 kPa	977.8
13427 kPa	977.8
13463 kPa	977.8
13506 kPa	977.9
13542 kPa	977.9
13579 kPa	977.9
13615 kPa	978
13660 kPa	977.9
13697 kPa	977.8
13734 kPa	977.9
13779 kPa	978
13816 kPa	978.1
13863 kPa	978
13902 kPa	978
13942 kPa	978.1
13982 kPa	978.1
14031 kPa	978.1
14074 kPa	978.2
14118 kPa	978.2
14166 kPa	978.1
14190 kPa	978.3
14210 kPa	978.2
14230 kPa	978.3
14254 kPa	978.2
14274 kPa	978.3
14298 kPa	978.3
14319 kPa	978.3
14340 kPa	978.4
14360 kPa	978.3
14384 kPa	978.3
14405 kPa	978.4
14426 kPa	978.4
14446 kPa	978.4
14472 kPa	978.2
14492 kPa	978.3
14514 kPa	978.3
14539 kPa	978.5
14560 kPa	978.4
14582 kPa	978.4
14608 kPa	978.5
14625 kPa	978.5
14650 kPa	978.4
14671 kPa	978.4
14693 kPa	978.6
14718 kPa	978.4
14740 kPa	978.5
14765 kPa	978.6
14787 kPa	978.6
14809 kPa	978.6
14835 kPa	978.4
14857 kPa	978.6
14879 kPa	978.7
14906 kPa	978.6
14928 kPa	978.7
14950 kPa	978.5
14976 kPa	978.6
14999 kPa	978.6
15022 kPa	978.7
15044 kPa	978.7
15071 kPa	978.7
15093 kPa	978.7
15116 kPa	978.5
15143 kPa	978.8
15166 kPa	978.7
15189 kPa	978.8
15217 kPa	978.7
15240 kPa	978.8
15263 kPa	978.6
15291 kPa	978.9
15314 kPa	978.8
15338 kPa	978.9
15366 kPa	978.7
15389 kPa	978.8
15417 kPa	978.9
15441 kPa	978.9
15465 kPa	978.9
15488 kPa	978.9
15517 kPa	979
15542 kPa	978.9
15566 kPa	978.9
15595 kPa	978.9
15620 kPa	978.9
15644 kPa	979
15673 kPa	979
15698 kPa	979
15722 kPa	979
15752 kPa	979.1
15776 kPa	979.1
15801 kPa	979.2
15831 kPa	979
15856 kPa	979.1
15882 kPa	979.1
15912 kPa	979.2
15938 kPa	979.2
15963 kPa	979.1
15994 kPa	979.2
16019 kPa	979.2
16045 kPa	979.1
16076 kPa	979.2
16102 kPa	979.2
16128 kPa	979.4
16159 kPa	979.2
16185 kPa	979.2
16212 kPa	979.2
16238 kPa	979.4
16270 kPa	979.3
16296 kPa	979.4
16328 kPa	979.4
16355 kPa	979.5
16382 kPa	979.5
16409 kPa	979.4
16441 kPa	979.5
16468 kPa	979.5
16501 kPa	979.4
16528 kPa	979.5
16556 kPa	979.4
16591 kPa	979.4
